Values quoted from earlier work as cited in patent US20160355464A1, “FUMARATE COMPOUNDS, PHARMACEUTICAL COMPOSITIONS THEREOF, AND METHODS OF USE” (priority 2015, published 2016).

For `COC(=O)/C=C/C(=O)OC` [DMF, dimethylfumarate], the aqueous solubility is given as “poor aqueous solubility”.
